Laboratory results from the Deep4Chem optical property database.

Experiment: solvent given as SMILES

For `Cc1cc(C)c2nc3c(=O)n(C)c(=O)nc-3n(C)c2c1`, the absorption maximum (in CC#N) was 446 nm.
For `FC(F)(F)c1cc2n(n1)[B-]1(c3ccccc3-c3ccccc31)[n+]1ccc3ccccc3c1-2`, the absorption maximum (in C1CCCCC1) was 373 nm, the absorption maximum (in Cc1ccccc1) was 375 nm and the absorption maximum (in ClCCl) was 373 nm.
For `C=Cc1cc2cc3c(cc2oc1=O)OCO3`, the absorption maximum (in CC#N) was 363 nm.
`O=C(O)COc1cccc(-c2c3nc(cc4ccc([nH]4)c(-c4cccc(OCC(=O)O)c4)c4nc(cc5ccc2[nH]5)CC4)C=C3)c1` gave an absorption maximum (in CS(C)=O) of 644 nm.
Molecule `COCCC1=Cc2nc1ccc1[nH]c(c3nc(ccc4[nH]c2cc4CCOC)C(CCOC)=C3)c2c(C(=O)OC)c(C(=O)O)ccc12` has an absorption maximum (in Cc1ccccc1) of 636 nm.
Molecule `COc1ccc(/C=C/c2ccccc2)cc1` has an absorption maximum (in CC#N) of 317 nm.
`COC(=O)C(Cc1ccc2oc(-c3ccc4c(c3)c3ccccc3n4-c3ccccc3)nc2c1)NC(=O)OC(C)(C)C` (configuration not stated) showed an absorption maximum (in C1CCCCC1) of 326 nm, an absorption maximum (in C1CCOC1) of 327.29 nm and an absorption maximum (in C1COCCO1) of 327.3 nm. For the same molecule, the absorption maximum (in CC1CCCO1) was 326.9 nm, the absorption maximum (in CC1COC(=O)O1) was 326 nm and the absorption maximum (in CC#N) was 325.9 nm. The absorption maximum (in CC(C)=O) was 325.9 nm, the absorption maximum (in CC(C)CC(C)(C)C) was 325.1 nm and the absorption maximum (in CC(C)CO) was 335.8 nm. It also gave an absorption maximum (in CC(C)O) of 327 nm, an absorption maximum (in CC(C)OC(C)C) of 327.4 nm and an absorption maximum (in CC(O)CO) of 338 nm. For the same molecule, the absorption maximum (in CCC(C)CC) was 324.4 nm, the absorption maximum (in CCCCC) was 324.5 nm and the absorption maximum (in CCCCCC) was 325.3 nm. It also gave an absorption maximum (in CCCCCCCCC) of 326 nm, an absorption maximum (in CCCCCCCCCC) of 326.2 nm and an absorption maximum (in CCCCCCCO) of 328.3 nm. The absorption maximum (in CCCCCCO) was 328.2 nm, the absorption maximum (in CCCCCO) was 327.3 nm and the absorption maximum (in CCCCO) was 327.4 nm. For the same molecule, the absorption maximum (in CCO) was 334.69 nm, the absorption maximum (in CCOC(C)=O) was 325.6 nm and the absorption maximum (in CCOCC) was 325.3 nm. The absorption maximum (in CN(C)C=O) was 327.9 nm, the absorption maximum (in CO) was 334.2 nm and the absorption maximum (in COCCOC) was 326.8 nm. It also gave an absorption maximum (in CS(C)=O) of 332.6 nm, an absorption maximum (in Cc1ccccc1) of 328.9 nm and an absorption maximum (in Cc1ccccc1C) of 329.1 nm. It also gave an absorption maximum (in ClC(Cl)Cl) of 329.7 nm, an absorption maximum (in ClCCl) of 328.8 nm and an absorption maximum (in NC=O) of 327.7 nm. For the same molecule, the absorption maximum (in OC1CCCCC1) was 328.6 nm, the absorption maximum (in OCCO) was 338.9 nm and the absorption maximum (in c1ccccc1) was 328.8 nm.
`O=C(c1ccccc1)c1cc2ccc1CCc1ccc(cc1-c1ccc(N(c3ccccc3)c3ccccc3)cc1)CC2` gave an absorption maximum (in Cc1ccccc1) of 311 nm.
For `CC(C)(C)c1ccc2c(c1)c1cc(C(C)(C)C)ccc1n2-c1ccc(C#Cc2ccc(C=O)cc2)cc1`, the absorption maximum (in ClCCl) was 354 nm.
For `CC1(C)c2ccccc2N(c2ccc(-c3cnc(C#N)nc3)cc2)c2ccccc21`, the absorption maximum (in Cc1ccccc1) was 384 nm.
Work on `O=Cc1ccc(C#CC(C#Cc2ccc(C=O)o2)=Cc2ccc(C=C(C#Cc3ccc(C=O)o3)C#Cc3ccc(C=O)o3)cc2)o1` yielded an absorption maximum (in ClC(Cl)Cl) of 450 nm.
Molecule `CCOC(=O)c1c(-c2cc3c(ccc4ccccc43)oc2=O)nn(-c2cccc(C)c2)c1C(=O)OCC` has an absorption maximum (in ClCCl) of 361 nm.
Work on `COc1ccc(-c2c3ccccc3c(C#Cc3ccccc3)c3cc4cc(C)sc4cc23)cc1` yielded an absorption maximum (in ClCCl) of 481 nm.
`CCN(CC)c1ccc(-c2nc3c4ccccc4n(C)c3nc2-c2ccc(B(c3c(C)cc(C)cc3C)c3c(C)cc(C)cc3C)cc2)cc1` gave an absorption maximum (in C1CCOC1) of 416 nm.
With `C(#Cc1ccccc1)C(C#Cc1ccccc1)=Cc1ccc(C=C(C#Cc2ccccc2)C#Cc2ccccc2)cc1` the absorption maximum (in ClC(Cl)Cl) was 416 nm.
In the case of `COc1ccc2c3c(c4ccc(OC)cc4c2c1)C1(c2ccccc2-c2ccccc21)c1ccccc1-3`, the absorption maximum (in C1CCCCC1) is reported as 386 nm.
In the case of `CCCCOc1c(-c2ccc(N(c3ccccc3)c3ccccc3)cc2)cc2cc(-c3ccc(N(c4ccccc4)c4ccccc4)cc3)c(OCCCC)c3c4c(OCCCC)c(-c5ccc(N(c6ccccc6)c6ccccc6)cc5)cc5cc(-c6ccc(N(c7ccccc7)c7ccccc7)cc6)c(OCCCC)c(c1c23)c54`, the absorption maximum (in ClCCl) is reported as 422 nm.
Work on `c1ccc(-c2ccc(-c3ccc(-n4c5ccccc5c5ccccc54)cc3)c3nsnc23)cc1` yielded an absorption maximum (in C1CCOC1) of 394 nm, an absorption maximum (in CC(C)=O) of 382 nm and an absorption maximum (in CCCCCC) of 394 nm. The absorption maximum (in CCOCC) was 392 nm.
With `CC1=C(c2ccc(N(c3ccccc3)c3ccccc3)cc2)C(C)=[N+]2C1=C(c1c(-c3ccccn3)nc3ccccn13)c1c(C)c(-c3ccc(N(c4ccccc4)c4ccccc4)cc3)c(C)n1[B-]2(F)F` the absorption maximum (in ClCCl) was 568 nm.
`Cc1cc2c3ccccc3n(C)c2c2c1c1ccccc1n2C` showed an absorption maximum (in ClCCl) of 329 nm.
`CCn1c2ccsc2c2c3nsnc3c3c4sccc4n(CC)c3c21` gave an absorption maximum (in C1CCOC1) of 436 nm, an absorption maximum (in CCOC(C)=O) of 433 nm and an absorption maximum (in CN(C)C=O) of 441 nm. The absorption maximum (in Cc1ccccc1) was 432 nm and the absorption maximum (in ClCCl) was 436 nm.
Molecule `c1cnc(-c2c3ccccc3c(-c3ncccn3)c3ccccc23)nc1` has an absorption maximum (in CCO) of 389 nm and an absorption maximum (in ClCCl) of 389 nm.
For `CCN(CC)c1ccc2cc(C#N)/c(=N\C(=O)c3ccco3)oc2c1`, the absorption maximum (in CCO) was 424 nm and the absorption maximum (in ClCCl) was 430 nm.
Molecule `CN(C)c1ccc(-c2cc(-c3ccccc3)nn2C)cc1` has an absorption maximum (in ClCCl) of 280 nm.
For `FC(F)(F)c1ccc(/C=C/c2nc3c(ccc4ccccc43)s2)cc1`, the absorption maximum (in C1CCCCC1) was 375 nm and the absorption maximum (in CC#N) was 369 nm.
With `C(=C(c1ccccc1)c1ccccc1)c1ccc(C=C(c2ccccc2)c2ccccc2)cc1` the absorption maximum (in C1CCOC1) was 352 nm.
For `CCn1c2ccccc2c2cccc(N(c3ccccc3)c3ccccc3)c21`, the absorption maximum (in ClCCl) was 353 nm.
In the case of `O=S(=O)([O-])c1ccc2c([O-])cc(S(=O)(=O)[O-])cc2c1`, the absorption maximum (in O) is reported as 350 nm.
`CCCCCCCC[n+]1ccc(-c2cc[n+](CCCCCCCC)cc2)cc1` showed an absorption maximum (in CC#N) of 264 nm.
With `c1ccc2c(-n3c(-c4ccc(-c5ccc(-c6nc7c8ccccc8c8ccccc8c7n6-c6cccc7ccccc67)c6ccccc56)c5ccccc45)nc4c5ccccc5c5ccccc5c43)cccc2c1` the absorption maximum (in ClCCl) was 334 nm.
With `c1ccc(-c2nc(-c3ccccc3)nc(-c3ccc(-n4c5ccccc5c5c6c(ccc54)C4(c5ccccc5-c5ccccc54)c4ccccc4-6)cc3)n2)cc1` the absorption maximum (in Cc1ccccc1) was 374 nm.
`CC1(C)CC(=O)C2=C(C1)Oc1ccc3ccc(O)cc3c1C2c1ccccn1` (configuration not stated) showed an absorption maximum (in C1CCOC1) of 335 nm, an absorption maximum (in C1COCCO1) of 335 nm and an absorption maximum (in CC#N) of 334 nm. For the same molecule, the absorption maximum (in CCCCCCC) was 276 nm, the absorption maximum (in CCO) was 334 nm and the absorption maximum (in CO) was 341 nm. The absorption maximum (in O) was 274 nm.
`Cc1ccc2nc3c4c(c5ccccc5c3nc2c1)OC(=O)CC4c1ccc(C(F)(F)F)cc1` (configuration not stated) showed an absorption maximum (in ClC(Cl)Cl) of 411 nm.
Molecule `CC(C)(C)c1ccc(N2c3ccc(C(C)(C)C)cc3B3c4cc(C(C)(C)C)ccc4N(c4ccc(C(C)(C)C)cc4)c4cc(-n5c6ccc(C(C)(C)C)cc6c6cc(C(C)(C)C)ccc65)cc2c43)cc1` has an absorption maximum (in Cc1ccccc1) of 451 nm.
In the case of `COc1ccc(-c2csc(/C(C#N)=C/c3ccc(Cl)cc3Cl)n2)cc1`, the absorption maximum (in CC#N) is reported as 377 nm.
`C(=C\c1nc2ccccc2o1)/c1ccccc1` showed an absorption maximum (in C1CCCCC1) of 320 nm and an absorption maximum (in CO) of 320 nm.
In the case of `Cc1cc(C#Cc2ccccc2)c2ccc3c(C#Cc4ccccc4)cc(C#Cc4ccccc4)c4ccc1c2c43`, the absorption maximum (in CS(C)=O) is reported as 451 nm and the absorption maximum (in ClC(Cl)(Cl)Cl) is reported as 445 nm.
For `COc1ccc2n1[B-](F)(F)[N+]1=CC=CC1=C2c1ccccc1`, the absorption maximum (in CC#N) was 493 nm, the absorption maximum (in CCCCCC) was 499 nm and the absorption maximum (in CCOC(C)=O) was 495 nm. The absorption maximum (in CO) was 495 nm and the absorption maximum (in ClCCl) was 499 nm.
For `N#Cc1c(-n2nnc3c2CCC2C(CC3)[C@@H]2CO)n([C@H]2C[C@H](O)[C@@H](CO)O2)c2ncnc(N)c12` (some centres not stated), the absorption maximum (in CO) was 287 nm.
Work on `F[B-]1(F)Oc2ccccc2-c2cc(-n3c4ccc(-c5ccccc5)cc4c4cc(-c5ccccc5)ccc43)cc[n+]21` yielded an absorption maximum (in Cc1ccccc1) of 374 nm.
Molecule `CC[n+]1c(-c2ccccc2)c2cc(N)ccc2c2ccc(NC(N)=O)cc21` has an absorption maximum (in O) of 458 nm.
With `O=C(O)CCCCCn1c2ccccc2c(=O)c2cc(S(=O)(=O)O)ccc21` the absorption maximum (in O) was 409 nm.
`CCN(CC)c1ccc(-c2cc3c(s2)c(C(=O)OC)cc(=O)n3C)cc1` gave an absorption maximum (in C1CCOC1) of 436 nm, an absorption maximum (in CC#N) of 436 nm and an absorption maximum (in CCO) of 444 nm. For the same molecule, the absorption maximum (in CO) was 444 nm, the absorption maximum (in CS(C)=O) was 446 nm and the absorption maximum (in Cc1ccccc1) was 434 nm.
`CCCCOC(=O)c1cc(Oc2ccc(C(C)(C)C)cc2)c2c3c(Cl)cc4c5c(cc(Cl)c(c6c(Oc7ccc(C(C)(C)C)cc7)cc(C(=O)OCCCC)c1c26)c53)C(=O)N(c1c(C(C)C)cccc1C(C)C)C4=O` showed an absorption maximum (in Cc1ccccc1) of 529 nm.
With `Clc1ccc(N2c3c(sc4ccccc34)Sc3sc4ccccc4c32)cc1` the absorption maximum (in ClCCl) was 309 nm.
Molecule `c1ccc(-c2nc(-c3c[nH]c4ccccc34)n3ccccc23)cc1` has an absorption maximum (in C1CCCCC1) of 382 nm, an absorption maximum (in CC#N) of 381 nm and an absorption maximum (in CO) of 372 nm. It also gave an absorption maximum (in ClCCl) of 380 nm and an absorption maximum (in O) of 390 nm.
Molecule `CC[n+]1c(C=C2C(=O)C(C=C3Sc4cc(Cl)ccc4N3C)=C2[O-])[se]c2ccccc21` has an absorption maximum (in CO) of 658 nm, an absorption maximum (in ClC(Cl)Cl) of 677 nm and an absorption maximum (in ClCCl) of 678 nm.
Molecule `CSc1ccc(/C=C/c2ccncn2)cc1` has an absorption maximum (in ClCCl) of 346 nm.
In the case of `CCOC(=O)/C(=C1\C(=O)C(O)=C1C=C1N(C)c2ccccc2C1(C)C)[N+](=O)[O-]`, the absorption maximum (in CCO) is reported as 475 nm.
In the case of `CC1(C)c2ccccc2N(c2ccc3c(c2)c(=O)c2cccc4c(=O)c5cc(N6c7ccccc7C(C)(C)c7ccccc76)ccc5n3c24)c2ccccc21`, the absorption maximum (in Cc1ccccc1) is reported as 432.96 nm.
With `C[NH+](C)c1c2ccccc2cc2ccccc12` the absorption maximum (in O) was 389 nm.
For `CCN(CC)c1ccc2cc(-c3ccc(-c4ccc5c6ccccc6c6c7cc(-c8ccc(-c9cc%10ccc(N(CC)CC)cc%10oc9=O)cc8)ccc7c7ccccc7c6c5c4)cc3)c(=O)oc2c1`, the absorption maximum (in ClC(Cl)Cl) was 412 nm.
Work on `N#Cc1nc2c(OCc3ccccc3)nc(N)nc2n1Cc1ccccc1` yielded an absorption maximum (in C1COCCO1) of 313 nm, an absorption maximum (in CC#N) of 313 nm and an absorption maximum (in CO) of 318 nm. For the same molecule, the absorption maximum (in ClCCl) was 311 nm.
In the case of `Cc1cccc(-c2nc3sc4ccccc4c3s2)c1`, the absorption maximum (in CS(C)=O) is reported as 348 nm.
